# Measured values published in the supplement of paper PMC10307832.
# Columns and labels:
# Test in all cases: relative viability (nuclei count vs DMSO), 5 days (fraction); higher = more cells survive
# [1] = compound: CCc1cnn2c(NCc3ccc[n+]([O-])c3)cc(N3CCCC[C@H]3CCO)nc12 [Dinaciclib] + Nc1ncn([C@H]2C[C@H](O)[C@@H](CO)O2)c(=O)n1 [Decitabine] (partner 2 µM)
# Procedure, shortened: (§1)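 Five library-drug doses in √10 steps were combined with a fixed anchor-drug dose, or a single drug was given alone, by pin tool to lung cancer cell lines in 1536-well plates the day after seeding. Nuclei were stained and counted after 5 days. Relative viability is the nuclei count in treated wells over that in vehicle wells, taken as the median of duplicate plates.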
# [2] = compound: CCc1cnn2c(NCc3ccc[n+]([O-])c3)cc(N3CCCC[C@H]3CCO)nc12 [Dinaciclib] + N=C(N)NC(=N)NCCc1ccccc1 [Phenformin] (partner 250 µM)
# Procedure, shortened: as §1
# [3] = compound: CCc1cnn2c(NCc3ccc[n+]([O-])c3)cc(N3CCCC[C@H]3CCO)nc12 [Dinaciclib] + C[C@]1(O)C[C@@H](c2nc(-c3ccc4ccc(-c5ccccc5)nc4c3)c3c(N)nccn32)C1 [Linsitinib] (partner 1 µM)
# Procedure, shortened: as §1
# [4] = compound: CCc1cnn2c(NCc3ccc[n+]([O-])c3)cc(N3CCCC[C@H]3CCO)nc12 [Dinaciclib] + NC(=O)Nc1cc(-c2cccc(F)c2)sc1C(=O)N[C@H]1CCCNC1 [AZD7762] (partner 0.2 µM)
# Procedure, shortened: as §1
# [5] = compound: CCc1cnn2c(NCc3ccc[n+]([O-])c3)cc(N3CCCC[C@H]3CCO)nc12 [Dinaciclib] + CC(C)C[C@H](NC(=O)[C@H](Cc1ccccc1)NC(=O)c1cnccn1)B(O)O [Bortezomib] (partner 0.002 µM)
# Procedure, shortened: as §1
Cell Line,relative viability ([1]; first compound 0.009487 µM),relative viability ([1]; first compound 0.03 µM),relative viability ([1]; first compound 0.09487 µM),relative viability ([1]; first compound 0.3 µM),relative viability ([2]; first compound 0.009487 µM),relative viability ([2]; first compound 0.03 µM),relative viability ([2]; first compound 0.09487 µM),relative viability ([2]; first compound 0.3 µM),relative viability ([3]; first compound 0.009487 µM),relative viability ([3]; first compound 0.03 µM),relative viability ([3]; first compound 0.09487 µM),relative viability ([3]; first compound 0.3 µM),relative viability ([4]; first compound 0.009487 µM),relative viability ([4]; first compound 0.03 µM),relative viability ([4]; first compound 0.09487 µM),relative viability ([4]; first compound 0.3 µM),relative viability ([5]; first compound 0.009487 µM),relative viability ([5]; first compound 0.03 µM),relative viability ([5]; first compound 0.09487 µM),relative viability ([5]; first compound 0.3 µM)
NCI-H727,0.916,0.37,0.413,0.373,0.648,0.284,0.256,0.21,0.268,0.193,0.0908,0.158,0.716,0.413,0.356,0.34,0.869,0.231,0.217,0.238
NCI-H838,0.337,0.162,0.131,0.138,0.247,0.117,0.0955,0.104,0.547,0.137,0.113,0.112,0.993,0.601,0.622,0.553,0.231,0.104,0.0725,0.127
NCI-H1355,0.364,0.321,0.174,0.157,0.502,0.319,0.183,0.184,0.899,0.635,0.151,0.132,1.02,0.869,0.267,0.127,1.16,1.1,0.223,0.152
NCI-H1437,0.405,0.194,0.182,0.197,0.279,0.187,0.17,0.13,0.839,0.112,0.0939,0.0919,1.12,0.16,0.182,0.163,0.376,0.205,0.0732,0.0751
NCI-H1651,0.705,0.391,0.105,0.0596,0.26,0.219,0.0746,0.0547,0.775,0.307,0.0746,0.0549,0.637,0.65,0.205,0.0865,0.96,0.763,0.25,0.0931
NCI-H1666,0.831,0.487,0.326,0.333,0.461,0.34,0.4,0.347,0.656,0.198,0.209,0.216,1.01,0.691,0.32,0.321,0.528,0.19,0.164,0.18
NCI-H1734,0.5,0.277,0.134,0.139,0.318,0.14,0.113,0.115,0.813,0.328,0.158,0.132,0.505,0.108,0.108,0.089,0.644,0.148,0.121,0.116
NCI-H1755,0.754,0.733,0.261,0.239,0.545,0.405,0.224,0.218,0.991,0.429,0.166,0.171,0.49,0.306,0.211,0.219,0.889,0.884,0.171,0.17
NCI-H1792,0.522,0.373,0.0508,0.0591,0.237,0.184,0.0541,0.075,0.559,0.317,0.069,0.0552,0.585,0.0463,0.032,0.0288,0.925,0.741,0.238,0.0774
NCI-H1915,0.253,0.24,0.131,0.12,0.295,0.149,0.13,0.133,1.06,0.279,0.136,0.127,0.763,0.354,0.115,0.0982,0.81,0.23,0.112,0.105
NCI-H1975,0.327,0.176,0.135,0.143,0.364,0.153,0.113,0.1,0.632,0.265,0.13,0.141,0.957,0.421,0.22,0.215,0.29,0.126,0.109,0.12
NCI-H1993,0.702,0.462,0.445,0.406,0.466,0.581,0.594,0.565,0.69,0.586,,0.518,0.668,0.364,0.385,0.396,1.18,0.551,,0.61
NCI-H2085,0.589,0.404,0.217,0.236,0.72,0.304,0.232,0.202,0.94,0.188,0.176,0.202,1.14,0.391,0.211,0.221,1.06,0.446,0.26,0.233
NCI-H2087,0.189,0.0863,0.0711,0.0804,0.588,0.112,0.118,0.107,0.69,0.164,0.155,0.133,1.44,0.108,0.127,0.123,0.998,0.135,0.142,0.123
NCI-H2126,0.524,0.393,0.187,0.176,0.443,0.258,0.221,0.21,0.692,0.555,0.197,0.207,1.13,0.899,0.29,0.198,1.06,0.973,0.524,0.208
NCI-H2347,0.673,0.383,0.212,0.232,0.468,0.131,0.193,0.209,1.03,0.355,0.273,0.266,0.78,0.226,0.2,0.185,1.23,0.226,0.239,0.215
NCI-H2405,0.7,0.261,0.212,0.219,0.417,0.253,0.223,0.186,0.989,0.25,0.262,0.235,0.539,0.202,0.193,0.196,0.904,0.761,0.207,0.271
NCI-H3122,0.404,0.117,0.121,0.107,0.172,0.101,0.103,0.106,0.932,0.147,0.145,0.147,1.07,0.107,0.0953,0.0953,1,0.195,0.139,0.151
PC-3 [JPC-3],0.794,0.671,0.34,0.302,0.492,0.476,0.326,0.204,0.912,0.991,0.537,0.237,0.904,0.476,0.308,0.279,0.679,0.791,0.226,0.231
PC-14,0.157,0.0718,0.0642,0.0671,0.279,0.0631,0.0459,0.0379,0.873,0.244,0.0973,0.0775,0.389,0.0715,0.0519,0.0512,0.807,0.109,0.0534,0.0475
RERF-LC-KJ,0.476,0.157,0.157,0.147,0.35,0.223,0.224,0.185,0.924,0.193,0.147,0.099,1.04,0.498,0.114,0.155,1.1,0.327,0.157,0.173
